Results taken from the NIST ThermoML archive (doi:10.1021/je100864e).

Test: osmotic coefficient (dimensionless); mn = molality of the nth substance listed, in mol/kg
Conditions: 298.15 K, Liquid, isopiestic method

O=C([O-])CC(O)(CC(=O)[O-])C(=O)O.[Na+].[Na+] [disodium hydrogen citrate] + O
Conditions	osmotic coefficient
m1 = 0.2817	0.806
m1 = 0.2939	0.792
m1 = 0.3096	0.77
m1 = 0.3227	0.773
m1 = 0.3856	0.759
m1 = 0.4011	0.753
m1 = 0.4258	0.75
m1 = 0.4592	0.724
m1 = 0.4761	0.726
m1 = 0.4822	0.728
m1 = 0.5501	0.714
m1 = 0.6381	0.71
m1 = 0.6827	0.706
m1 = 0.6915	0.705
m1 = 0.6951	0.707
m1 = 0.6997	0.708
m1 = 1.018	0.689
m1 = 1.09	0.688
m1 = 1.107	0.682
m1 = 1.246	0.688
m1 = 1.329	0.682
m1 = 1.579	0.694
m1 = 1.635	0.694
m1 = 1.659	0.69
m1 = 1.731	0.69
m1 = 1.788	0.701
m1 = 1.928	0.702
m1 = 1.934	0.693
m1 = 2	0.704
m1 = 2.327	0.711
m1 = 2.393	0.712
m1 = 2.439	0.711

O=C([O-])CC(O)(CC(=O)O)C(=O)O.[Na+] [sodium dihydrogen citrate] + O
Conditions	osmotic coefficient
m1 = 0.3252	0.849
m1 = 0.4619	0.829
m1 = 0.5944	0.82
m1 = 0.7158	0.803
m1 = 0.7377	0.81
m1 = 0.7458	0.805
m1 = 0.7565	0.801
m1 = 0.7666	0.798
m1 = 0.78	0.81
m1 = 0.9089	0.801
m1 = 1.096	0.813
